Source: US10047088B2, “1H-1,8-naphthyridin-2-ones as anti proliferative compounds” (NATCO PHARMA LIMITED, priority 2014, dated 2018)
Where two headings read alike, the source gives them in different places.

Key:
Baf3/T315I = Baf3/T315I (Homo sapiens, UniProt P00519, T315I, cells depend on it); test: MTT cell proliferation assay, Baf3/T315I; type: cell-based; settings: read-out: IC50 values obtained from MTT assay
Description: (§1) All the experimental compounds were evaluated for in vitro efficacy employing standard cell lines used for the screening of anti-cancer compounds.
(§2) In Vitro Studies of NRC-21T on BCR-abl Positive Cell Line K562 and Mutant Cell Lines Baf3/T315i, M351T, E255K and WT.
(§3) The stock solution was further diluted with the same cell culture medium and used in concentrations of 0.1 nm to 10 μm. Cell proliferation by MTT assay was done as follows. 1000 to 10,000 cells were seeded per well in 96-well plate and different concentrations of […] ranging from 10 μm to 0.1 nM were added in triplicates. After incubating the cells with NRC-21T for the required time period 24-72 hrs, 15 μl of 5 mg/ml MTT was added and incubated for additional 4 hours at 37° C. and 5% CO2. After 4 hrs, formazan crystals were dissolved in solubilizing buffer overnight at 37° C. Absorbance was measured on Elisa reader at dual wavelength of 570-630-nm. By MTT assay the IC50 values of the NRC21T were computed. […] (FIG. 3)

Baf3/M351T = Baf3/M351T (Homo sapiens, UniProt P00519, M351T, cells depend on it); test: MTT cell proliferation assay, Baf3/M351T; type: cell-based; settings: Table 1A, 24-72 hrs incubation, read-out: IC50 values obtained from MTT assay
Description: as §1, §2, §3

Baf3/E255K = Baf3/E255K (Homo sapiens, UniProt P00519, E255K, cells depend on it); test: MTT cell proliferation assay, Baf3/E255K; type: cell-based; settings: Table 1A, 24-72 hrs incubation, read-out: IC50 values obtained from MTT assay
Description: as §1, §2, §3

Baf3/WT = Baf3/WT (Homo sapiens, UniProt P00519); test: MTT cell proliferation assay, Baf3/WT; type: cell-based; settings: Table 1A, 24-72 hrs incubation, read-out: IC50 values obtained from MTT assay
Description: as §1, §2, §3

[1] = system: BCR-abl positive cell line K562; test: MTT cell proliferation assay, K562; type: cell-based; settings: Homo sapiens, read-out: IC50 values obtained from MTT assay
Description: as §1, §2, §3

[2] = system: BaF3/T315i mutant Leukemia cancer cells; test: Matrigel invasion assay; type: cell-based; settings: matrigel transwell, 72 hrs, specified concentration
Description: T315i cells (3×10^5) were suspended in 300 μl of serum-free medium and placed in the upper compartment of transwell chambers pre-coated with the matrigel (Millipore, Catalog No. ECM550, USA). The lower compartment of the chamber was filled with 500 μl serum-medium (10% FBS) and the cells were allowed to migrate for 72 hrs. After incubation, the cells were fixed and stained with the dye provided along with the kit and quantified using Elisa plate reader at 560 nm.

T315I induced tumour = test: Antagonism in T315I induced tumour in Nude Mice; type: in vivo; settings: for Tumour volume after treatment (Mean ± SEM): daily oral, NRC21T 200 mg/kg, Ponatinib 50 mg/kg
Description: The study was carried out with 18 Nude Mice (9 Male+9 Female).
The cell line was inoculated into Nude Mice subcutaneously to the right hind limb flank at a strength of 1×10^6 cells/0.2 ml. Animals were observed daily for the appearance of tumour. The tumour volume was measured using the formula ½ l×w^2 (l=length of tumour & w=width of tumour). When the mean tumour volume was recorded above 400 mm^3, the treatment with the above drugs was started. The above drugs were administered orally daily for 30 days. Weights of Nude Mice were taken daily before dosing and tumour measurements were done on alternative days using digital Vernier caliper. Surviving animals were sacrificed after the dosing was complete for 30 days and the organs (tumour with skin and spleen) were collected.

T315I cell Line = test: Survival time in SCID Mice injected with T315I cell line; type: in vivo; settings: T315I cells i.v., 30 days dosing, NRC21T 200 mg/kg p.o, Ponatinib 10 mg/kg p.o
in vivo = settings: both, Swiss Albino, mouse

`Cc1ccc(C(=O)Nc2ccc(CN3CCN(C)CC3)c(C(F)(F)F)c2)cc1C#Cc1cnc2[nH]c(=O)ccc2c1` [NRC21T, 4-Methyl-N-[4-[(4-methylpiperazin-1-yl)methyl]-3-(trifluoromethyl)phenyl]-3-[2-(7-oxo-8H-1,8-naphthyridin-3-yl)ethynyl]benzamide] showed a GI50 (Baf3/T315I; Table 1A, Baf3/T315I, 24-72 hrs incubation) of 14 nM, a GI50 (Baf3/M351T) of 2 nM and a GI50 (Baf3/E255K) of 16 nM. For the same molecule, the GI50 (Baf3/WT) was 11 nM, the IC50 ([1]; Table 1A, 24-72 hrs incubation) was 7 nM and the “Percentage of Anti-invasion property” value [2] was 28%. The “Tumour volume after treatment (Mean ± SEM)” value (T315I induced tumour; 3rd Day) was 721.18 ± 141.41 mm^3, the “Tumour volume after treatment (Mean ± SEM)” value (T315I induced tumour; 5th Day) was 183.97 ± 8.66 mm^3 and the “Tumour volume after treatment (Mean ± SEM)” value (T315I induced tumour; 7th Day) was 106.59 ± 11.90 mm^3. For the same molecule, the “Tumour volume after treatment (Mean ± SEM)” value (T315I induced tumour; 9th Day) was 83.21 ± 8.83 mm^3, the “Tumour volume after treatment (Mean ± SEM)” value (T315I induced tumour; 11th Day) was 48.88 ± 4.36 mm^3 and the “Tumour volume after treatment (Mean ± SEM)” value (T315I induced tumour; 13th Day) was 10.61 ± 2.3 mm^3. For the same molecule, the “Initial tumour volume (Mean ± SEM)” value (T315I induced tumour; before treatment, NRC21T 200 mg/kg p.o, Ponatinib 50 mg/kg p.o groups) was 921.35 ± 176.32 mm^3, the “Mean Survival Time (Mean ± SEM)” value (T315I cell Line) was 36 ± 0 days and the MTD at 14 days (in vivo) was over 2000 mg/kg.
In the case of `Cc1ccc(NC(=O)c2cccc(C(F)(F)F)c2)cc1C#Cc1cnc2[nH]c(=O)ccc2c1` [NRC-13T, N-[4-Methyl-3-[2-(7-oxo-8H-1,8-naphthyridin-3-yl)ethynyl]phenyl]-3-(trifluoromethyl)benzamide], the GI50 (Baf3/T315I; Table 1B, T315I) is reported as 1510 nM and the IC50 ([1]; Table 1B) is reported as 9 nM.
`Cc1ccc(C(=O)Nc2cccc(C(F)(F)F)c2)cc1C#Cc1cnc2[nH]c(=O)ccc2c1` [NRC-14T, 4-Methyl-3-[2-(7-oxo-8H-1,8-naphthyridin-3-yl)ethynyl]-N-[3-(trifluoromethyl)phenyl]benzamide] showed a GI50 (Baf3/T315I; Table 1B, T315I) of 1040 nM and an IC50 ([1]; Table 1B) of 8 nM.
`Cc1ccc(NC(=O)c2cc(C(F)(F)F)cc(C(F)(F)F)c2)cc1C#Cc1cnc2[nH]c(=O)ccc2c1` [NRC-15T, N-[4-Methyl-3-[2-(7-oxo-8H-1,8-naphthyridin-3-yl)ethynyl]phenyl]-3,5-Bis(trifluoromethyl)benzamide] gave a GI50 (Baf3/T315I; Table 1B, T315I) of 7690 nM and an IC50 ([1]; Table 1B) of 20 nM.
With `Cc1ccc(C(=O)Nc2cc(C(F)(F)F)cc(C(F)(F)F)c2)cc1C#Cc1cnc2[nH]c(=O)ccc2c1` [NRC-16T, N-[3,5-Bis(trifluoromethyl)phenyl]-4-methyl-3-[2-(7-oxo-8H-1,8-naphthyridin-3-yl)ethynyl]benzamide] the GI50 (Baf3/T315I; Table 1B, T315I) was over 10000 nM.
With `Cc1ccc(C(=O)Nc2cc(CN3CCN(C)CC3)cc(C(F)(F)F)c2)cc1C#Cc1cnc2[nH]c(=O)ccc2c1` [NRC-17T, 4-Methyl-N-[3-[(4-methylpiperazin-1-yl)methyl]-5-(trifluoromethyl)phenyl]-3-[2-(7-oxo-8H-1,8-naphthyridin-3-yl)ethynyl]benzamide] the GI50 (Baf3/T315I; Table 1B, T315I) was 712 nM and the IC50 ([1]; Table 1B) was 21 nM.
`Cc1cn(-c2cc(NC(=O)c3ccc(C)c(C#Cc4cnc5[nH]c(=O)ccc5c4)c3)cc(C(F)(F)F)c2)cn1` [NRC-18T, 4-Methyl-N-[3-(4-methylimidazol-1-yl)-5-(trifluoromethyl)phenyl]-3-[2-(7-oxo-8H-1,8-naphthyridin-3-yl)ethynyl]benzamide] showed a GI50 (Baf3/T315I; Table 1B, T315I) of 228 nM.
Work on `Cc1ccc(NC(=O)c2ccc(CN3CCN(C)CC3)c(C(F)(F)F)c2)cc1C#Cc1cnc2[nH]c(=O)ccc2c1` [NRC-19T, N-[4-Methyl-3-[2-(7-oxo-8H-1,8-naphthyridin-3-yl)ethynyl]phenyl]-4-[(4-methylpiperazin-1-yl)methyl]-3-(trifluoromethyl)benzamide] yielded a GI50 (Baf3/T315I; Table 1B, T315I) of 334 nM and an IC50 ([1]; Table 1B) of 7 nM.
Molecule `Cc1ccc(C(=O)Nc2ccc(CN3CCN(C)CC3)c(C(F)(F)F)c2)cc1/C=C/c1cnc2[nH]c(=O)ccc2c1` [NRC-20T, 4-Methyl-N-[4-[(4-methylpiperazin-1-yl)methyl]-3-(trifluoromethyl)phenyl]-3-[(E)-2-(7-oxo-8H-1,8-naphthyridin-3-yl)vinyl]benzamide] has a GI50 (Baf3/T315I; Table 1B, T315I) of 155 nM and an IC50 ([1]; Table 1B) of 33 nM.
In the case of `Cc1ccc(C(=O)Nc2ccc(CN3CCN(C)CC3)c(C(F)(F)F)c2)cc1C#Cc1cnc2cccnn12` [Ponatinib, reference compound], the “Percentage of Anti-invasion property” value [2] is reported as 12% and the “Mean Survival Time (Mean ± SEM)” value (T315I cell Line) is reported as 36 ± 0 days.
